According to patent US20250011368A1, “DLL3 TARGETING PEPTIDES AND CONSTRUCTS THEREOF” (MARIANA ONCOLOGY INC., priority 2023, published 2025):
Bridge positions count the residues as written; N and C are the ends. Square brackets hold non-standard residues; d marks the D form. Side chains are listed from the residue outwards. Peptide text beside a SMILES is read from it. * marks the point of attachment. ξ: configuration not given here. DOTA = O=C(O)CN1CCN(CC(=O)O)CCN(CC(=O)*)CCN(CC(=O)O)CC1; Trp(5-F) = N[C@@H](Cc1c[nH]c2ccc(F)cc12)C(=O)O; Trp(7-aza) = N[C@@H](Cc1c[nH]c2ncccc12)C(=O)O; Pro(trans-4-F) = O=C(O)[C@@H]1C[C@@H](F)CN1; 2Nal = N[C@@H](Cc1ccc2ccccc2c1)C(=O)O; ξW = NC(Cc1c[nH]c2ccccc12)C(=O)O; Thr(3ξ) = CC(O)[C@H](N)C(=O)O; Cba = N[C@@H](CC1CCC1)C(=O)O; Chg = N[C@H](C(=O)O)C1CCCCC1; PEG4 = NCCOCCOCCOCCOCCC(=O)O; Tle = CC(C)(C)[C@H](N)C(=O)O

Target: T1, human DLL3 (Homo sapiens, UniProt Q9NYJ7)
T1 sequence (Q9NYJ7 27-618): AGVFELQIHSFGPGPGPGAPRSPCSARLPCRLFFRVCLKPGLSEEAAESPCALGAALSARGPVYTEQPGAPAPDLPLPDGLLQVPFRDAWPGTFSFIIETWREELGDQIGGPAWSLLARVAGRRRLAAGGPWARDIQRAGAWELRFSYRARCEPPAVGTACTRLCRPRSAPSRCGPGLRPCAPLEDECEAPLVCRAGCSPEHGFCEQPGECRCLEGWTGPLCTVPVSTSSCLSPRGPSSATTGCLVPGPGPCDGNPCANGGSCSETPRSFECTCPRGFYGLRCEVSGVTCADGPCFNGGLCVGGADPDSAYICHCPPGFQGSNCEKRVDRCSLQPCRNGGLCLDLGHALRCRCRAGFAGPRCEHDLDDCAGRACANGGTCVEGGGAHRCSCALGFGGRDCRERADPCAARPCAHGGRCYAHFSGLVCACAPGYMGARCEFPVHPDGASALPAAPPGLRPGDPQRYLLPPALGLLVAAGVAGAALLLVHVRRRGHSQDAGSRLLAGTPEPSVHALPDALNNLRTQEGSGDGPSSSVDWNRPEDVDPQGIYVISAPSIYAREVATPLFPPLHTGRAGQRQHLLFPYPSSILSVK
Assay: Affinity determination by Surface Plasmon Resonance (SPR)
Format: binding
Conditions: 25° C., biotinylated human DLL3 immobilized on streptavidin sensor chip, 1:1 binding model; read-out: SPR KD
Method in brief: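 Biotinylated human DLL3 was captured on a streptavidin chip with a reference surface. Compounds at several concentrations were injected at 100 μL/minute in phosphate buffer (137 mM NaCl, 2.7 mM KCl, 0.05% P20, 2% DMSO). Affinity and kinetics came from 1:1 model fits of the sensorgrams.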

Question: For `CC(=O)N[C@@H](Cc1c[nH]c2ccc(F)cc12)C(=O)N[C@H](C(=O)N[C@H](C(=O)N[C@H]1CSSC[C@@H](C(=O)N[C@@H](Cc2c[nH]c3ncccc23)C(=O)N2C[C@H](F)C[C@H]2C(=O)N[C@H](CCCCNC(=O)CN2CCN(CC(=O)O)CCN(CC(=O)O)CCN(CC(=O)O)CC2)C(N)=O)NC(=O)[C@H](CC(=O)O)NC(=O)[C@H](Cc2cnc[nH]2)NC(=O)[C@H](Cc2ccc3ccccc3c2)NC(=O)[C@H](CC(N)=O)NC(=O)[C@H](CC(N)=O)NC1=O)C(C)(C)C)[C@@H](C)O` [compound 257, Ac-(5Fluoro-W)-T-(Tbg)-C(3)-N-N-(2Nal)-H-D-C(3)-(7Aza-W)-(trans4Fluoro-P)-[D-Lys(DOTA)]-NH2] (Ac-[Trp(5-F)]T[Tle]CNN[2Nal]HDC[Trp(7-aza)][Pro(trans-4-F)][dK](DOTA)-NH2; disulfide 4-10), which Kd is on record?
Answer: Its Kd is less than 1 nM.

Question: How did the Kd turn out when `CC(=O)N[C@@H](Cc1c[nH]c2ccc(F)cc12)C(=O)N[C@H](C(=O)N[C@H](C(=O)N[C@H]1CSSC[C@@H](C(=O)N[C@@H](Cc2c[nH]c3ncccc23)C(=O)N2C[C@H](F)C[C@H]2C(=O)N[C@H](CCCCNC(=O)CN2CCN(CC(=O)O)CCN(CC(=O)O)CCN(CC(=O)O)CC2)C(N)=O)NC(=O)[C@H](CC(=O)O)NC(=O)[C@H](Cc2cnc[nH]2)NC(=O)[C@H](Cc2ccc3ccccc3c2)NC(=O)[C@H](CC(N)=O)NC(=O)[C@H](CC(N)=O)NC1=O)C1CCCCC1)[C@@H](C)O` [compound 258, Ac-(5Fluoro-W)-T-(Chg)-C(3)-N-N-(2Nal)-H-D-C(3)-(7Aza-W)-(trans4Fluoro-P)-[D-Lys(DOTA)]-NH2] (Ac-[Trp(5-F)]T[Chg]CNN[2Nal]HDC[Trp(7-aza)][Pro(trans-4-F)][dK](DOTA)-NH2; disulfide 4-10) was run?
Answer: Its Kd is less than 1 nM.

Question: Which Kd does the source give for `CC[C@H](C)[C@H](NC(=O)[C@@H](NC(=O)[C@H](Cc1c[nH]c2ccccc12)NC(C)=O)[C@@H](C)O)C(=O)N[C@H]1CSSC[C@@H](C(=O)N[C@@H](Cc2c[nH]c3ccccc23)C(=O)N2CCC[C@H]2C(=O)N[C@H](CCCCNC(=O)CN2CCN(CC(=O)O)CCN(CC(=O)O)CCN(CC(=O)O)CC2)C(=O)O)NC(=O)[C@H](CC(=O)O)NC(=O)[C@H](Cc2cnc[nH]2)NC(=O)[C@H](Cc2ccc3ccccc3c2)NC(=O)[C@H](CC(N)=O)NC(=O)[C@H](CC(N)=O)NC1=O` [compound 262, Ac-W-T-I-C(3)-N-N-(2Nal)-H-D-C(3)-W-P-[D-Lys(DOTA)]-OH] (Ac-WTICNN[2Nal]HDCWP[dK](DOTA)-OH; disulfide 4-10) here?
Answer: Its Kd is less than 1 nM.

Question: `CC(=O)N[C@@H](Cc1c[nH]c2ccc(F)cc12)C(=O)N[C@H](C(=O)N[C@@H](CC1CCC1)C(=O)N[C@H]1CSSC[C@@H](C(=O)N[C@@H](Cc2c[nH]c3ncccc23)C(=O)N2C[C@H](F)C[C@H]2C(=O)N[C@@H](CCCCNC(=O)CN2CCN(CC(=O)O)CCN(CC(=O)O)CCN(CC(=O)O)CC2)C(N)=O)NC(=O)[C@H](CC(=O)O)NC(=O)[C@H](Cc2cnc[nH]2)NC(=O)[C@H](Cc2ccc3ccccc3c2)NC(=O)[C@H](CC(N)=O)NC(=O)[C@H](CC(N)=O)NC1=O)[C@@H](C)O` [compound 269, Ac-(5Fluoro-W)-T-(CBA)-C(3)-N-N-(2Nal)-H-D-C(3)-(7Aza-W)-(trans4Fluoro-P)-[D-Lys(DOTA)]-NH2] (Ac-[Trp(5-F)]T[Cba]CNN[2Nal]HDC[Trp(7-aza)][Pro(trans-4-F)]K(DOTA)-NH2; disulfide 4-10) was tested. Which Kd did it give?
Answer: Its Kd is less than 1 nM.

Question: For `CC[C@H](C)[C@H](NC(=O)[C@@H](NC(=O)C(Cc1c[nH]c2ccccc12)NC(C)=O)C(C)O)C(=O)N[C@H]1CSSC[C@@H](C(=O)N[C@@H](Cc2c[nH]c3ccccc23)C(=O)N2CCC[C@H]2C(=O)NCCOCCOCCOCCOCCC(=O)N[C@H](CCCCNC(=O)CN2CCN(CC(=O)O)CCN(CC(=O)O)CCN(CC(=O)O)CC2)C(N)=O)NC(=O)[C@H](CC(=O)O)NC(=O)[C@H](Cc2cnc[nH]2)NC(=O)[C@H](Cc2ccc3ccccc3c2)NC(=O)[C@H](CC(N)=O)NC(=O)[C@H](CC(N)=O)NC1=O` (stereo partly drawn) [compound 270, Ac-W-T-I-C(3)-N-N-(2Nal)-H-D-C(3)-W-P-PEG4-[D-Lys(DOTA)]-NH2] (Ac-[ξW][Thr(3ξ)]ICNN[2Nal]HDCWP[PEG4][dK](DOTA)-NH2; disulfide 4-10), which Kd is on record?
Answer: Its Kd is less than 1 nM.

Question: For `CC[C@H](C)[C@H](NC(=O)[C@@H](NC(=O)C(Cc1c[nH]c2ccccc12)NC(C)=O)C(C)O)C(=O)N[C@H]1CSSC[C@@H](C(=O)N[C@@H](Cc2c[nH]c3ccccc23)C(=O)N2CCC[C@H]2C(=O)N[C@H](CCCCNC(=O)CCOCCOCCOCCOCCNC(=O)CN2CCN(CC(=O)O)CCN(CC(=O)O)CCN(CC(=O)O)CC2)C(N)=O)NC(=O)[C@H](CC(=O)O)NC(=O)[C@H](Cc2cnc[nH]2)NC(=O)[C@H](Cc2ccc3ccccc3c2)NC(=O)[C@H](CC(N)=O)NC(=O)[C@H](CC(N)=O)NC1=O` (stereo partly drawn) [compound 271, Ac-W-T-I-C(3)-N-N-(2Nal)-H-D-C(3)-W-P-[D-Lys(PEG4-DOTA)]-NH2] (Ac-[ξW][Thr(3ξ)]ICNN[2Nal]HDCWP[dK]([PEG4-DOTA])-NH2; disulfide 4-10), which Kd is on record?
Answer: Its Kd is less than 1 nM.

Question: With `CC[C@H](C)[C@H](NC(=O)[C@@H](NC(=O)[C@H](Cc1c[nH]c2ccccc12)NC(C)=O)[C@@H](C)O)C(=O)N[C@H]1CSSC[C@@H](C(=O)N[C@@H](Cc2c[nH]c3ccccc23)C(=O)N2CCC[C@H]2C(=O)N[C@H](CCCCNC(=O)CN2CCN(CC(=O)O)CCN(CC(=O)O)CCN(CC(=O)O)CC2)C(N)=O)NC(=O)[C@H](CC(=O)O)NC(=O)[C@H](CCC(=O)O)NC(=O)[C@H](Cc2c[nH]c3ccccc23)NC(=O)[C@H](CC(N)=O)NC(=O)[C@H](CCC(=O)O)NC1=O` [compound 273, Ac-W-T-I-C(3)-Glu-N-W-Glu-D-C(3)-W-P-[D-Lys(DOTA)]-NH2] (Ac-WTICENWEDCWP[dK](DOTA)-NH2; disulfide 4-10) as the molecule, how does the Kd read?
Answer: Its Kd is 1 to 10 nM.

Question: `CC[C@H](C)[C@H](NC(=O)[C@@H](NC(=O)[C@H](Cc1c[nH]c2ccccc12)NC(C)=O)[C@@H](C)O)C(=O)N[C@H]1CSSC[C@@H](C(=O)N[C@@H](Cc2c[nH]c3ccccc23)C(=O)N2CCC[C@H]2C(=O)N[C@H](CCCCNC(=O)CN2CCN(CC(=O)O)CCN(CC(=O)O)CCN(CC(=O)O)CC2)C(N)=O)NC(=O)[C@H](CC(=O)O)NC(=O)[C@H](CCC(=O)O)NC(=O)[C@H](Cc2c[nH]c3ccccc23)NC(=O)[C@H](CC(N)=O)NC(=O)[C@H](CC(N)=O)NC1=O` [compound 274, Ac-W-T-I-C(3)-N-N-W-Glu-D-C(3)-W-P-[D-Lys(DOTA)]-NH2] (Ac-WTICNNWEDCWP[dK](DOTA)-NH2; disulfide 4-10) was tested. Which Kd did it give?
Answer: Its Kd is 1 to 10 nM.

Question: With `CC[C@H](C)[C@H](NC(=O)[C@@H](NC(=O)[C@H](Cc1c[nH]c2ccccc12)NC(C)=O)[C@@H](C)O)C(=O)N[C@H]1CSSC[C@@H](C(=O)N[C@@H](Cc2c[nH]c3ccccc23)C(=O)N2CCC[C@H]2C(=O)N[C@H](CCCCNC(=O)CN2CCN(CC(=O)O)CCN(CC(=O)O)CCN(CC(=O)O)CC2)C(N)=O)NC(=O)[C@H](CC(=O)O)NC(=O)[C@H](CCC(=O)O)NC(=O)[C@H](Cc2c[nH]c3ccccc23)NC(=O)[C@H](CCC(=O)O)NC(=O)[C@H](CCC(=O)O)NC1=O` [compound 275, Ac-W-T-I-C(3)-Glu-Glu-W-Glu-D-C(3)-W-P-[D-Lys(DOTA)]-NH2] (Ac-WTICEEWEDCWP[dK](DOTA)-NH2; disulfide 4-10) as the molecule, how does the Kd read?
Answer: Its Kd is 1 to 10 nM.

Question: For `CC[C@H](C)[C@H](NC(=O)[C@@H](NC(=O)[C@H](Cc1c[nH]c2ccccc12)NC(C)=O)[C@@H](C)O)C(=O)N[C@H]1CSSC[C@@H](C(=O)N[C@@H](Cc2c[nH]c3ccccc23)C(=O)N2CCC[C@H]2C(=O)N[C@H](CCCCNC(=O)CN2CCN(CC(=O)O)CCN(CC(=O)O)CCN(CC(=O)O)CC2)C(N)=O)NC(=O)[C@H](CC(=O)O)NC(=O)[C@H](CCC(=O)O)NC(=O)[C@H](Cc2c[nH]c3ccccc23)NC(=O)[C@H](CCC(=O)O)NC(=O)[C@H](CC(N)=O)NC1=O` [compound 276, Ac-W-T-I-C(3)-N-Glu-W-Glu-D-C(3)-W-P-[D-Lys(DOTA)]-NH2] (Ac-WTICNEWEDCWP[dK](DOTA)-NH2; disulfide 4-10), which Kd is on record?
Answer: The Kd was 10 to 100 nM.

Question: Which Kd does the source give for `CC[C@H](C)[C@H](NC(=O)[C@@H](NC(=O)[C@H](Cc1c[nH]c2ccccc12)NC(C)=O)[C@@H](C)O)C(=O)N[C@H]1CSSC[C@@H](C(=O)N[C@@H](Cc2c[nH]c3ccccc23)C(=O)N2CCC[C@H]2C(=O)N[C@H](CCCCNC(=O)CN2CCN(CC(=O)O)CCN(CC(=O)O)CCN(CC(=O)O)CC2)C(N)=O)NC(=O)[C@H](CC(=O)O)NC(=O)[C@H](Cc2cnc[nH]2)NC(=O)[C@H](Cc2c[nH]c3ccccc23)NC(=O)[C@H](CC(N)=O)NC(=O)[C@H](CCC(=O)O)NC1=O` [compound 277, Ac-W-T-I-C(3)-Glu-N-W-H-D-C(3)-W-P-[D-Lys(DOTA)]-NH2] (Ac-WTICENWHDCWP[dK](DOTA)-NH2; disulfide 4-10) here?
Answer: Its Kd is less than 1 nM.

Question: How did the Kd turn out when `CC[C@H](C)[C@H](NC(=O)[C@@H](NC(=O)[C@H](Cc1c[nH]c2ccccc12)NC(C)=O)[C@@H](C)O)C(=O)N[C@H]1CSSC[C@@H](C(=O)N[C@@H](Cc2c[nH]c3ccccc23)C(=O)N2CCC[C@H]2C(=O)N[C@H](CCCCNC(=O)CN2CCN(CC(=O)O)CCN(CC(=O)O)CCN(CC(=O)O)CC2)C(N)=O)NC(=O)[C@H](CC(=O)O)NC(=O)[C@H](Cc2cnc[nH]2)NC(=O)[C@H](Cc2c[nH]c3ccccc23)NC(=O)[C@H](CCC(=O)O)NC(=O)[C@H](CCC(=O)O)NC1=O` [compound 278, Ac-W-T-I-C(3)-Glu-Glu-W-H-D-C(3)-W-P-[D-Lys(DOTA)]-NH2] (Ac-WTICEEWHDCWP[dK](DOTA)-NH2; disulfide 4-10) was run?
Answer: Its Kd is 1 to 10 nM.
